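Each compound was tested at five concentrations against cells in 96-well plates for 48 hours. The concentration for full growth arrest is given as TGI.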 Where a SMILES comes first, the peptide text is derived from it.
Key:
Assay in all cases: inhibition of tumour cell growth, NCI panel, 48 h
[1] = tested on: NCI/ADR-RES ovarian
[2] = tested on: DMS 273 small cell lung
[3] = tested on: SK-MEL-2 melanoma
[4] = tested on: M19-MEL melanoma
[5] = tested on: SN12K1 renal
[6] = tested on: MOLT-4 leukemia
[7] = tested on: HCT-116 colon
[8] = tested on: HCT-15 colon
[9] = tested on: KM20L2 colon
[10] = tested on: TK-10 renal
[11] = tested on: BT-549 breast
[12] = tested on: T-47D breast

SMILES | TGI [1] [µM] | TGI [2] [µM] | TGI [3] [µM] | TGI [4] [µM] | TGI [5] [µM] | TGI [6] [µM] | TGI [7] [µM] | TGI [8] [µM] | TGI [9] [µM] | TGI [10] [µM] | TGI [11] [µM] | TGI [12] [µM]
C=C1C(=O)O[C@@H]2[C@H]3O[C@]3(C)CCC=C(C)CC[C@@H]12 | 45.3 | > 60.3 | 37.7 | 33.7 | 37.9 | 92 | 35.1 | 35.3 | 62.2 |  |  | 
CC1NC(=O)CNC(=O)CNC(=O)C(Cc2ccc(O)cc2)NC(=O)C(C(C)C)NC(=O)C(C)NC1=O (stereo not given) (cyclo(GGAAVY); configuration not given here) | > 100 | > 100 | > 100 | > 100 | > 100 | > 100 | > 100 | > 100 |  |  |  | 
CC1=C2C(O)C(C(C)C(=O)NCC(C)C)CCC2(C)C=CC1=O (stereo not given) | > 100 | > 100 | > 100 | > 100 | > 100 | > 100 | > 100 | > 100 | > 100 |  |  | 
CN(C)c1nc(N(C)C)nc(N(C)C)n1 | > 150 | > 147 | > 150 | > 148 | > 150 | 136 | > 150 | > 150 | > 150 | > 150 | > 150 | > 150
NC(N)=NCCCC(N=c1c2ccccc2n(O)c2ccccc12)C(=O)O (stereo not given) |  | > 100 | > 100 | > 100 |  | > 100 | > 100 | > 100 | > 100 | > 100 |  | 
Cc1ccc(/C=C2\CN(C)CC3=C2OC(N)=C(C#N)C3c2ccc(C)cc2)cc1 (stereo not given) | > 100 |  | > 63.4 |  |  | > 51 | 27.5 | 42.9 |  | > 80.8 | 40.1 | 71.2
CNc1ncnc(Sc2nc(N)nc3nc[nH]c23)c1[N+](=O)[O-] | 34.4 |  | 8.9 |  |  | 4.77 | 11.9 | 14 |  | 0.941 | 20.1 | 16.8
Cc1c(N2C(=O)/C(=C/C=C/c3ccccc3)N=C2c2ccccc2)c(=O)n(-c2ccccc2)n1C | 55 |  | 44.5 |  |  | 78.8 | > 100 | 21 |  | > 100 | 40.2 | > 100
Brc1cccc(/C=C/CN2CCN(CCOC(c3ccccc3)c3ccccc3)CC2)c1 | 30.4 |  | 33.6 |  |  | 31.1 | 28.9 | 40.1 |  | 33.9 | 31.1 | 18.6
OC1(c2ccccc2)CC2CCC(C1)N2CCc1ccccc1 (stereo not given) | > 100 |  | > 100 |  |  | > 100 | > 100 | > 100 |  | > 100 | > 100 | > 100
C=C(O)c1ccccc1C#Cc1ccccc1C(=O)OC | > 10 |  | > 10 |  |  | > 10 | > 10 | > 10 |  | > 10 | > 10 | > 10
C[C@]12CC[C@@H]3c4ccc(O)cc4CC[C@H]3[C@@H]1C/C(=C\c1ccc([N+](=O)[O-])cc1)C2=O | > 100 |  | > 100 |  |  | > 100 | > 100 | > 100 |  | > 100 | > 100 | > 100
CCOC(=O)c1nc2cc(N3CCOCC3)c(F)cc2[nH]c1=O | > 100 |  | > 100 |  |  | > 100 | > 100 | > 100 |  | > 100 | > 100 | > 100
